Results from US6737383B1, “Herbicidal oxadiazolidines” (priority 1999, dated 2004).

Legend:
blackgrass = assay: Test B pre/postemergence blackgrass; assay type: in vivo, Alopecurus myosuroides
Method in brief: (§1)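 Response is a visual 0-to-10 score relative to untreated plants, where 0 means no effect and 10 means complete control, taken twelve to sixteen days after application. Treatments went onto soil at planting and onto foliage of 1- to 4-leaf plants, using a surfactant-containing non-phytotoxic solvent.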

surinam grass = assay: Test B pre/postemergence surinam grass; assay type: in vivo, Brachiaria decumbens
Method in brief: as §1

cocklebur = assay: Test B pre/postemergence cocklebur; assay type: in vivo, Xanthium strumarium
Method in brief: as §1

corn = assay: Test B pre/postemergence corn; assay type: in vivo, Zea mays
Method in brief: as §1

crabgrass = assay: Test B pre/postemergence crabgrass; assay type: in vivo, Digitaria sanguinalis
Method in brief: as §1

giant foxtail = assay: Test B pre/postemergence giant foxtail; assay type: in vivo, Setaria faberii
Method in brief: as §1

pigweed = assay: Test B pre/postemergence pigweed; assay type: in vivo, Amaranthus retroflexus
Method in brief: as §1

rape = assay: Test B pre/postemergence rape; assay type: in vivo, Brassica napus
Method in brief: as §1

soybean = assay: Test B pre/postemergence soybean; assay type: in vivo, Glycine max
Method in brief: as §1

sugar beet = assay: Test B pre/postemergence sugar beet; assay type: in vivo, Beta vulgaris
Method in brief: as §1

velvetleaf = assay: Test B pre/postemergence velvetleaf; assay type: in vivo, Abutilon theophrasti
Method in brief: as §1

wheat = assay: Test B pre/postemergence wheat; assay type: in vivo, Triticum aestivum
Method in brief: as §1

wild oat = assay: Test B pre/postemergence wild oat; assay type: in vivo, Avena fatua
Method in brief: as §1

rice = assay: Test B flood test rice; assay type: in vivo, Oryza sativa
Method in brief: (§2)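 Read-out is a visual response score from 0 (no effect) to 10 (complete control), assigned by comparison with untreated controls. Treatment was applied at the 2-leaf stage, and plants stayed in the greenhouse for twelve to sixteen days before scoring.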

smallflower flatsedge = assay: Test B flood test smallflower flatsedge; assay type: in vivo, Cyperus difformis
Method in brief: as §2

duck salad = assay: Test B flood test duck salad; assay type: in vivo, Heteranthera limosa
Method in brief: as §2

[1] = Postemergence, Rate 62 g/ha, scale 0 to 10, 0 is no effect, 10 is complete control
[2] = Postemergence, Rate 125 g/ha, scale of 0 to 10 where 0 is no effect and 10 is complete control
[3] = Postemergence, Rate 250 g/ha, scale of 0 to 10, 0 is no effect, 10 is complete control
[4] = Postemergence, Rate 500 g/ha, scale of 0 to 10 where 0 is no effect and 10 is complete control
[5] = Preemergence, Rate 62 g/ha, scale of 0 to 10 where 0 is no effect and 10 is complete control
[6] = Preemergence, Rate 125 g/ha, scale of 0 to 10 where 0 is no effect and 10 is complete control
[7] = Preemergence, Rate 250 g/ha, scale 0 to 10 (0 no effect, 10 complete control)
[8] = Preemergence, Rate 500 g/ha, scale of 0 to 10 where 0 is no effect and 10 is complete control
[9] = Rate 62 g/ha, flood test species, Pre-emergence, visual evaluation after twelve to sixteen days
[10] = Rate 125 g/ha, under heading Pre-emergence, flood test species, visual evaluation after twelve to sixteen days
[11] = Rate 250 g/ha, Pre-emergence (flood test species), scale 0 to 10, 0 is no effect, 10 is complete control
[12] = Rate 500 g/ha, Pre-emergence section of Table B, 0 to 10 scale (0 no effect, 10 complete control)

`CC(C)N(C(=O)n1oc(=O)n(CC(=O)C2CC2)c1=O)c1ccc(Cl)cc1` [Compound 639] was tested, and the “Plant response rating, Blackgrass” value (blackgrass; [1]) was 0, the “Plant response rating, Blackgrass” value (blackgrass; [2]) was 0 and the “Blackgrass plant response rating” value (blackgrass; [3]) was 2. For the same compound, the “Plant response rating, Blackgrass” value (blackgrass; [4]) was 6, the “Blackgrass plant response rating” value (blackgrass; [5]) was 0 and the “Blackgrass plant response rating” value (blackgrass; [6]) was 0. For the same compound, the “Plant response rating, Blackgrass” value (blackgrass; [7]) was 2, the “Plant response rating, Blackgrass” value (blackgrass; [8]) was 2 and the “Plant response rating, B. signalgrass” value (surinam grass; [1]) was 0. The “Plant response rating, B. signalgrass” value (surinam grass; [2]) was 0, the “B. signalgrass plant response rating” value (surinam grass; [3]) was 0 and the “Plant response rating, B. signalgrass” value (surinam grass; [4]) was 2. The “B. signalgrass plant response rating” value (surinam grass; [5]) was 0, the “B. signalgrass plant response rating” value (surinam grass; [6]) was 0 and the “Plant response rating, B. signalgrass” value (surinam grass; [7]) was 5. For the same compound, the “Plant response rating, B. signalgrass” value (surinam grass; [8]) was 7, the “Plant response rating, Cocklebur” value (cocklebur; [1]) was 0 and the “Plant response rating, Cocklebur” value (cocklebur; [2]) was 0. The “Cocklebur plant response rating” value (cocklebur; [3]) was 2, the “Plant response rating, Cocklebur” value (cocklebur; [4]) was 2 and the “Cocklebur plant response rating” value (cocklebur; [5]) was 0. For the same compound, the “Cocklebur plant response rating” value (cocklebur; [6]) was 0, the “Plant response rating, Cocklebur” value (cocklebur; [7]) was 0 and the “Plant response rating, Cocklebur” value (cocklebur; [8]) was 2. For the same compound, the “Plant response rating, Corn” value (corn; [1]) was 0, the “Plant response rating, Corn” value (corn; [2]) was 0 and the “Corn plant response rating” value (corn; [3]) was 0. For the same compound, the “Plant response rating, Corn” value (corn; [4]) was 0, the “Corn plant response rating” value (corn; [5]) was 0 and the “Corn plant response rating” value (corn; [6]) was 0. The “Plant response rating, Corn” value (corn; [7]) was 0, the “Plant response rating, Corn” value (corn; [8]) was 0 and the “Plant response rating, Crabgrass” value (crabgrass; [1]) was 0. The “Crabgrass plant response rating” value (crabgrass; [3]) was 2, the “Plant response rating, Crabgrass” value (crabgrass; [4]) was 8 and the “Crabgrass plant response rating” value (crabgrass; [5]) was 7. The “Crabgrass plant response rating” value (crabgrass; [6]) was 7, the “Plant response rating, Crabgrass” value (crabgrass; [7]) was 9 and the “Plant response rating, Crabgrass” value (crabgrass; [8]) was 9. For the same compound, the “Plant response rating, Giant foxtail” value (giant foxtail; [1]) was 0, the “Plant response rating, Giant foxtail” value (giant foxtail; [2]) was 0 and the “Giant foxtail plant response rating” value (giant foxtail; [3]) was 6. The “Plant response rating, Giant foxtail” value (giant foxtail; [4]) was 7, the “Giant foxtail plant response rating” value (giant foxtail; [5]) was 7 and the “Giant foxtail plant response rating” value (giant foxtail; [6]) was 9. For the same compound, the “Plant response rating, Giant foxtail” value (giant foxtail; [7]) was 9, the “Plant response rating, Giant foxtail” value (giant foxtail; [8]) was 9 and the “Plant response rating, Redroot pigweed” value (pigweed; [1]) was 3. For the same compound, the “Plant response rating, Redroot pigweed” value (pigweed; [2]) was 4, the “Redroot pigweed plant response rating” value (pigweed; [3]) was 4 and the “Redroot pigweed plant response rating” value (pigweed; [5]) was 0. The “Redroot pigweed plant response rating” value (pigweed; [6]) was 0, the “Plant response rating, Redroot pigweed” value (pigweed; [7]) was 2 and the “Plant response rating, Redroot pigweed” value (pigweed; [8]) was 10. For the same compound, the “Plant response rating, Rape” value (rape; [1]) was 0, the “Plant response rating, Rape” value (rape; [2]) was 0 and the “Rape plant response rating” value (rape; [3]) was 0. The “Plant response rating, Rape” value (rape; [4]) was 3, the “Rape plant response rating” value (rape; [5]) was 0 and the “Rape plant response rating” value (rape; [6]) was 0. The “Plant response rating, Rape” value (rape; [7]) was 3, the “Plant response rating, Rape” value (rape; [8]) was 10 and the “Plant response rating, Soybean” value (soybean; [1]) was 0. The “Plant response rating, Soybean” value (soybean; [2]) was 0, the “Soybean plant response rating” value (soybean; [3]) was 3 and the “Soybean plant response rating” value (soybean; [5]) was 0. For the same compound, the “Soybean plant response rating” value (soybean; [6]) was 0, the “Plant response rating, Soybean” value (soybean; [7]) was 0 and the “Plant response rating, Soybean” value (soybean; [8]) was 3. The “Plant response rating, Sugarbeets” value (sugar beet; [1]) was 0, the “Plant response rating, Sugarbeets” value (sugar beet; [2]) was 0 and the “Sugarbeets plant response rating” value (sugar beet; [3]) was 0. For the same compound, the “Sugarbeets plant response rating” value (sugar beet; [5]) was 0, the “Sugarbeets plant response rating” value (sugar beet; [6]) was 0 and the “Plant response rating, Sugarbeets” value (sugar beet; [7]) was 0. The “Plant response rating, Sugarbeets” value (sugar beet; [8]) was 6, the “Plant response rating, Velvetleaf” value (velvetleaf; [1]) was 0 and the “Plant response rating, Velvetleaf” value (velvetleaf; [2]) was 0. For the same compound, the “Velvetleaf plant response rating” value (velvetleaf; [3]) was 0, the “Velvetleaf plant response rating” value (velvetleaf; [5]) was 0 and the “Velvetleaf plant response rating” value (velvetleaf; [6]) was 0. The “Plant response rating, Velvetleaf” value (velvetleaf; [7]) was 0, the “Plant response rating, Velvetleaf” value (velvetleaf; [8]) was 3 and the “Plant response rating, Wheat” value (wheat; [1]) was 0. The “Plant response rating, Wheat” value (wheat; [2]) was 0, the “Wheat plant response rating” value (wheat; [3]) was 0 and the “Wheat plant response rating” value (wheat; [5]) was 0. The “Wheat plant response rating” value (wheat; [6]) was 0, the “Plant response rating, Wheat” value (wheat; [7]) was 0 and the “Plant response rating, Wheat” value (wheat; [8]) was 0. The “Plant response rating, Wild oats” value (wild oat; [1]) was 1, the “Plant response rating, Wild oats” value (wild oat; [2]) was 1 and the “Wild oats plant response rating” value (wild oat; [3]) was 1. For the same compound, the “Wild oats plant response rating” value (wild oat; [5]) was 0, the “Wild oats plant response rating” value (wild oat; [6]) was 0 and the “Plant response rating, Wild oats” value (wild oat; [7]) was 0. The “Plant response rating, Wild oats” value (wild oat; [8]) was 3, the “Plant response rating, Rice (0 to 10 scale, 0 is no effect, 10 is complete control)” value (rice; [9]) was 0 and the “Rice plant response rating (0 to 10 scale, 0 is no effect, 10 is complete control)” value (rice; [10]) was 0. The “Rice plant response rating” value (rice; [11]) was 0, the “Rice plant response rating” value (rice; [12]) was 0 and the “Plant response rating, S. Flatsedge (0 to 10 scale, 0 is no effect, 10 is complete control)” value (smallflower flatsedge; [9]) was 0. For the same compound, the “S. Flatsedge plant response rating (0 to 10 scale, 0 is no effect, 10 is complete control)” value (smallflower flatsedge; [10]) was 0, the “S. Flatsedge plant response rating” value (smallflower flatsedge; [11]) was 0 and the “S. Flatsedge plant response rating” value (smallflower flatsedge; [12]) was 0. The “Plant response rating, Ducksalad (0 to 10 scale, 0 is no effect, 10 is complete control)” value (duck salad; [9]) was 0, the “Ducksalad plant response rating (0 to 10 scale, 0 is no effect, 10 is complete control)” value (duck salad; [10]) was 0 and the “Ducksalad plant response rating” value (duck salad; [11]) was 0. For the same compound, the “Ducksalad plant response rating” value (duck salad; [12]) was 0.
